Measurements as given in ChEMBL document CHEMBL1687856, “Oroidin inhibits the activity of the multidrug resistance target Pdr5p from yeast plasma membranes” (J Nat Prod, 2011).
Activity calls are given as the source filed them. The rule behind the calls is not given here.

Key:
Saccharomyces cerevisiae [1] = test: Inhibition of Prdp5 in Saccharomyces cerevisiae AD124567 assessed as inhibition of glucose-dependent rhodamine 6G efflux after 2 hrs at 100 uM by fluorescence microscopy
Saccharomyces cerevisiae [2] = test: Antimicrobial activity against Saccharomyces cerevisiae AD124567 assessed as growth yield reduction at 200 uM after 48 hrs by chemosensitization assay; conditions: AD124567, 48 h, read-out: GI
Saccharomyces cerevisiae [3] = test: Antimicrobial activity against Pdrp5 overexpressing Saccharomyces cerevisiae AD124567 assessed as growth yield reduction at 200 uM after 48 hrs by chemosensitization assay; format: functional; conditions: AD124567, 48 h, read-out: GI
[4] = Inhibition of Pdr5p-dependent UTPase activity in Saccharomyces cerevisiae AD124567 assessed as release of inorganic phosphate after 60 mins […]
[5] = Inhibition of Pdr5p-dependent ATPase activity in Saccharomyces cerevisiae AD124567 assessed as release of inorganic phosphate after 60 mins […]
Saccharomyces cerevisiae [6] = test: Inhibition of Prdp5 in Saccharomyces cerevisiae AD124567 assessed as inhibition of glucose-dependent rhodamine 6G efflux after 13 mins at 200 uM by spectrofluorimetry in presence of 2-deoxyglucose treated for 30 mins before compound addition
Saccharomyces cerevisiae [7] = test: Inhibition of Prdp5 in Saccharomyces cerevisiae AD124567 assessed as inhibition of glucose-dependent rhodamine 6G efflux after 13 mins by spectrofluorimetry in presence of 2-deoxyglucose treated for 30 mins before compound addition
Saccharomyces cerevisiae [8] = test: Inhibition of Pdrp5-mediated rhodamine 6G accumulation in Saccharomyces cerevisiae AD124567 at 20 uM after 2 hrs by fluorescence microscopic analysis

| inhibition (Saccharomyces cerevisiae [8]) | SMILES | inhibition (Saccharomyces cerevisiae [1]) | inhibition of growth at 200 µM (Saccharomyces cerevisiae [2]) | inhibition of growth at 200 µM (Saccharomyces cerevisiae [3]) | IC50 [4] | IC50 [5] | inhibition (Saccharomyces cerevisiae [6]) | inhibition (Saccharomyces cerevisiae [7]) |
| --- | --- | --- | --- | --- | --- | --- | --- | --- |
| – | Nc1ncc(/C=C/CNC(=O)c2cc(Br)c(Br)[nH]2)[nH]1 [OROIDIN] | Active | 30% | 30% | 13 µM | 20 µM | 60% | Dose-dependent effect |
| Active | C=CC[C@@H]1/C=C(\C)C[C@H](C)C[C@H](OC)[C@H]2O[C@@](O)(C(=O)C(=O)N3CCCC[C@H]3C(=O)O[C@H](/C(C)=C/[C@@H]3CC[C@@H](O)[C@H](OC)C3)[C@H](C)[C@@H](O)CC1=O)[C@H](C)C[C@@H]2OC | – | – | – | – | – | – | – |
